Residue numbers refer to the chain shown, from its start. Values joined by “and” are separate entries in the source; they are usually repeats but may differ in a detail not shown here. Equal entries are not always repeated. “Also recorded” adds a separate entry of the source. Where a SMILES comes first, the peptide text is derived from it. The star is where a group is joined. Benzoyl(4-OMe) = COc1ccc(C(=O)*)cc1

Broadly, the Kd is the equilibrium constant for the complex coming apart.

Assay [1] has as its target T1, APC W593A (Homo sapiens, UniProt P25054, W593A).
T1 sequence (P25054 303-739 W593A): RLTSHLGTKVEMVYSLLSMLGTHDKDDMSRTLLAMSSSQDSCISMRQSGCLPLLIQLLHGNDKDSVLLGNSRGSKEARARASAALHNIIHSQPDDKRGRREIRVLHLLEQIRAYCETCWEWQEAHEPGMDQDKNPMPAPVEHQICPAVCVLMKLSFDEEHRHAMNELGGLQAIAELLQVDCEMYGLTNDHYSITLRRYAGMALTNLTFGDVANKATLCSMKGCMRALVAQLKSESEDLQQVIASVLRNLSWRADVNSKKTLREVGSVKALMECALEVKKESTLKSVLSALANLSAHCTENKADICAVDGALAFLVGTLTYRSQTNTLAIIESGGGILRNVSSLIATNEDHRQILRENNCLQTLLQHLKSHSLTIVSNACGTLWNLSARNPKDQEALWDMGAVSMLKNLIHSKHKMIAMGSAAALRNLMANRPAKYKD
As to the kind of experiment: ITC assay, APC W593A mutant. The format is binding. The protocol:
(§1) ITC experiments were performed using a MicroCal ITC200 calorimeter (Malvern Panalytical Ltd.). APC protein and peptide inhibitors were diluted with buffer containing 50 mM HEPES pH 7.5, 300 mM NaCl and 1 mM EDTA. The cells were loaded with APC proteins at 10–20 μM. All injections were performed using an initial injection of 0.2 μL followed by 19 injections of 2 μL at 100–200 μM. All measurements were carried out at 30 °C. The data were analyzed using a single-site binding model within MicroCal ITC200 analysis software to generate the stoichiometry (N), enthalpy changes (ΔH), entropy changes (ΔS), and the association constant (K) of binding. The changes in free energy (ΔG) were calculated (ΔG = ΔH-TΔS).

The target in assay [2] is T2, APC W593A, N641A (Homo sapiens, UniProt P25054, N641A/W593A).
T2 sequence (P25054 303-739 W593A/N641A): T1 sequence (P25054 303-739 W593A) with N339A
As to the kind of experiment: ITC assay, APC W593A, N641A double mutant. The format is binding. On the procedure: as §1

In assay [3] the target is T3, APC–Asef PPI (HA–APC (303–876), FLAG–Asef (170–632)) (Homo sapiens, UniProt P25054).
T3 sequence (P25054 303-876): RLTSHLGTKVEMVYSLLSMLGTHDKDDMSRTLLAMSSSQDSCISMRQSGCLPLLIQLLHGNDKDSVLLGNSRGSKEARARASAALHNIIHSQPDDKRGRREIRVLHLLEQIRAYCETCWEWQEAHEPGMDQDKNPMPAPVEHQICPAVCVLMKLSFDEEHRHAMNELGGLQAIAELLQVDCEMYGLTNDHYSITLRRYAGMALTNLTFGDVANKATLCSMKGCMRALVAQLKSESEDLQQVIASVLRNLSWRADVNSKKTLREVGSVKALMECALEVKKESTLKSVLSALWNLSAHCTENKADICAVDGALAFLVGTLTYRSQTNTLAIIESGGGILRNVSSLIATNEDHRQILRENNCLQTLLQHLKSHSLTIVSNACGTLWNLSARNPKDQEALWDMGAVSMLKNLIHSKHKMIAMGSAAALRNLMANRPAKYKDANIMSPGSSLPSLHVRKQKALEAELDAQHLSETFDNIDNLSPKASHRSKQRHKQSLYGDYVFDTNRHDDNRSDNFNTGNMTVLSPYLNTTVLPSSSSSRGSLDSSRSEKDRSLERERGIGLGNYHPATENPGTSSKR
As to the kind of experiment: Exogenous Co-IP of APC–Asef in drug-treated HEK293T cells. The note with it: 24 h, TAT + linker and MAI-516 50 μM, MAIT-516 25 and 50 μM.
Protocol: For direct western blot analysis, cells were harvested in NP-40 lysis buffer (1% NP-40, 50 mM Tris-HCl at pH 7.5, 150 mM NaCl, 1 mM PMSF, 25 mM NaF, 1 mM Na3VO4) supplemented with cOmplete™ Protease Inhibitor Cocktail (Roche). […] Forty-eight hours after transfection, the cells were washed twice with cold PBS and lysed in NP-40 lysis buffer for 1 h on ice. […] The next day, the samples were centrifuged (7,000 × g for 30 s at 4 °C), and the supernatant was discarded. The beads were washed four times with NP-40 lysis buffer, and the bound proteins were eluted in SDS sample buffer for immunoblotting analysis and detected with anti-FLAG (Sigma; F1804, 1:1,000), anti-HA antibody (Sigma; H9658, 1:20,000) and goat anti-mouse IgG secondary antibody (Signalway antibody; L3032, 1:50,000). […] Twenty-four hours after transfection, peptides and peptidomimetics were added to the culture medium for 24 h. […] For endogenous immunoprecipitation, SW480, DLD1, and RKO cells were seeded in 10-cm cell culture dishes.

Assay [4] addresses T4, APC WT (Homo sapiens, UniProt P25054).
T4 sequence (P25054 303-739): T1 sequence (P25054 303-739 W593A) with A291W
Nature of the assay: ITC assay, APC WT. The format is binding. The note with it: 30 °C. On the procedure:
as §1
In general terms: ITC needs no label: the signal is the heat of the interaction.

Assay [5] has as its system SW480 cells. As to the kind of experiment: Wound-healing migration assay, SW480. In kind it is cell-based. The protocol: Cells were seeded in 12-well plates at a density of 4 × 10^5 cells per well and grown until 90% confluence in DMEM supplemented with 10% FBS. The monolayers were scratched with a sterile pipette tip (QSP; T104TLS-Q). The cells were washed with 1× PBS and then cultured in culture medium containing 1% FBS and peptides or peptidomimetics. The corresponding photos were captured at the time of scratching and after 24–72 h.

Turning to `COc1ccc(C(=O)N[C@@H](C)C(=O)NCC(=O)N[C@@H](CCC(=O)O)C(=O)N[C@@H](CO)C(=O)N[C@@H](CC(C)C)C(=O)N[C@@H](Cc2ccc(O)cc2)C(=O)N[C@@H](CCC(=O)O)C(N)=O)cc1` [MAI-516] ({Benzoyl(4-OMe)}-AGESLYE-NH2), the “reduction of binding affinity vs APC WT” value was “approximately 100 fold” in assay [1] and 200 fold in assay [2]. Also, the “-TΔS” value amounted to 2.63 kcal/mol in assay [1] (30 °C), 4.9 kcal/mol in assay [2] (30 °C) and 4.85 kcal/mol in assay [4]. Further, the L/P ratio in assay [1] (30 °C) was 0.92; in assay [2] (30 °C), 0.77. The ΔG was -8.87 kcal/mol in assay [1] (30 °C), -8.44 kcal/mol in assay [2] (30 °C) and -11.6 kcal/mol in assay [4]. Besides, the results for the ΔH in assay [1] (30 °C), in assay [2] (30 °C) and in assay [4] were -11.5 kcal/mol, -13.3 kcal/mol and -16.4 kcal/mol, respectively. Moreover, the Kd in assay [1] (ITC, 30 °C) is 400 nM; in assay [2] (ITC, 30 °C), 860 nM; in assay [4] (ITC), 4.4 nM. The “effect on APC–Asef PPI (Co-IP)” value in assay [3] is “no effect”. The “L/P ratio (number of sites per APC)” value in assay [4] turned out to be 0.97. Also, the “Relative migration ability (single replicates)” value in assay [5] (FigS10c, relative to DMSO) was 0.86 and 1.12 and 0.84. Besides, the “Relative migration ability, mean” value in assay [5] (FigS10c, relative to DMSO) is given as 0.94. Besides, the “cell migration (wound healing)” value in assay [5] (SW480, MAI-516 50 μM) was “dose not inhibit the migration; also recorded: no apparent impact”.

Values taken from PMC9402538, “Rational design of a sensitivity-enhanced tracer for discovering efficient APC–Asef inhibitors” (Nature Communications, 2022).
